Laboratory results published in patent US20230333087A1, “METHODS FOR MONITORING PATIENT RESPONSE TO TREATMENT OF RETINAL OXIDATIVE DISEASES” (BioJiva LLC, priority 2022, published 2023).

Columns and labels:
Format in all cases: in vivo, C57BL/6J mice
retinal structure = test: Toluidine blue staining of plastic sections, retinal histology and thickness
Experimental: Electroretinography was conducted on mice fed with D-DHA or natural DHA for 4 weeks to evaluate retinal function. […] Thus, using this measure, incorporation of D-DHA had no impact on retinal function (FIG. 7A). […] Toluidine blue staining was performed on plastic sections to examine retinal histology.
Plastic sections (3 µm) were cut in the sagittal plane. The third eyelid was used for the orientation when embedding eye cups. Toluidine blue staining on plastic sections was used to evaluate retinal morphology.

[1] = Ocular D-DHA accretion and elimination (0.5% D-DHA diet 77 days, DHA wash-out 73 days)
Source text: To determine the pharmacokinetics of ocular D-DHA uptake, incorporation and elimination from the neural retina and RPE/choroid/sclera, twelve-week-old C57BL/6J mice were fed a 0.5% D-DHA containing diet (0.5 g D-DHA/100 g food, Table 3) for 77 days followed by an additional 73-day wash-out phase with DHA. At 4 weeks, >55% of the DHA in the retina was D-DHA rising to >60% at 5 weeks (FIG. 6A). At similar time points, D-DHA in the RPE/choroid/sclera was >80%. […] Based on the accretion and elimination data, two-month-old mice were fed with diets containing either D-DHA or natural DHA control for 1 week, 2 weeks, 3 weeks, and 4 weeks before the IVT injection of iron and saline control (FIG. 6B). In order to better approximate typical DHA doses in human prescription omega-3 supplements (e.g. 1,500 mg/day DHA in Lovaza), the D-DHA and DHA experimental mouse diets were adjusted to 0.25% instead of 0.5% for most of the study. On a 0.25% D-DHA diet, retinal D-DHA levels exceeded 50% at five weeks (52.2±1.5% and 55% of total DHA by our GC- and LC- based MS methods, respectively), regardless of whether eyes were injected with iron or control saline (Table 3).
Eleven-week-old C57BL/6J mice were purchased from Jackson Laboratory (Bar Harbor, ME) and housed in 20-25 lux light conditions under 12 h day/night cycle in the Dean McGee Eye Institute Animal Research Facility at the University of Oklahoma Health Sciences Center, Oklahoma City, OK. One week after acclimatization to the vivarium with ad libitum access to laboratory rodent chow and water the animals were assigned to experimental groups. To determine ocular D-DHA accretion, the mice were switched from the laboratory rodent diet to the experimental D-DHA supplemented diet containing 0.5% D-DHA plus 6.5% high oleic soybean oil (w/w) in AIN93G^51 (Research Diet, Inc. New Brunswick, NJ). The diets were vacuum packaged and stored at - 20° C. Food was replaced three times a week with fresh food ad libitum that is stored in 4° C. after it is taken from - 20° C. Based on previous estimated retina accretion kinetics, retina, optic nerve and eye cups containing sclera, retinal pigment epithelium-choroid (RPE-choroid) were dissected from 6 mice (3 females and 3 males) at different time points during eleven weeks of D-DHA feeding. The tissues were snap frozen in liquid nitrogen, and stored in -80° C. until fatty acid analyses. After eleven weeks (77 days) on D-DHA diet, the animals were switched to the washout diet containing 0.5% DHA plus 6.5% high oleic soybean oil (w/w) in AIN93G and maintained on this diet until euthanasia at three different time points up to 73 days, when tissues were harvested for fatty acid analysis. All animal procedures were approved by the University of Oklahoma Health Sciences Center Institutional Animal Care and Use Committee.
Three types of mass spectrometric analysis were performed to confirm repeatability of results. In the first, lipids were extracted from retinas by a modified Folch method (CHCl3/CH3OH, 2:1). derivatized to fatty acid methyl esters (FAME), and analyzed by high resolution capillary gas chromatography and specialized chemical ionization tandem mass spectrometry. Baseline resolved DHA and D-DHA total ion signal were integrated, and the proportions of D-DHA/total DHA were calculated. […] Lipids were extracted and saponified, and analyzed by ESI-LC/MS on a 4000 QTrap (Sciex) operating in enhanced negative mode over an m/z range of 320 - 345 and a scan rate of 250 /sec. […]

[2] = system: iron-induced geographic atrophy; test: Iron-induced geographic atrophy development, imaging 4 weeks after injection; details: 4 weeks diet before and 4 weeks after iron injection
Source text: To evaluate whether D-DHA could protect against geographic atrophy in this model, mice were continued on respective diets for 4 weeks after iron or saline injection. […] This corresponded to photoreceptor (white arrows) and RPE degeneration (black arrows) in OCT scans (FIG. 10C). […] Taken together, […] retinal D-DHA provided long-term protection against the geographic atrophy development induced by iron.
Adult male wild-type C57BL/6J mice (Stock No.000664, Jackson Labs, Bar Harbor, ME, USA) were housed in standard conditions under cyclic light (12 h:12 h light-dark cycle). Mice had ad libitum access to water and food. Beginning at 2 mo of age, mice were placed on the AIN93G diet described above, supplemented with 0.25% D-DHA or DHA (control diet) for 1 week, 2 weeks, 3 weeks, or 4 weeks prior to the intravitreal injection. Mice were given an intravitreal injection of 1 µl 0.5 mM ferric ammonium citrate diluted in 0.9% NaCl (saline) (MP Biomedicals LLC, Santa Ana, CA) or
Mice were given general anesthesia and placed on a platform. Pupils were dilated with 1% tropicamide saline solution (Akorn, Inc., Lake Forest, IL). Optical coherence tomography (OCT) imaging was performed for visualization of the retinal structure by using a Bioptigen
Envisu (R2200, Bioptigen Inc., Durham, NC, USA) coupled to a broadband LED light source (T870-HP, Superlum Diodes, Ltd, Ireland). […]

- % of the DHA in the retina that was D-DHA ([1]; 0.5% D-DHA diet, 4 weeks): > 55%
- % of the DHA in the retina that was D-DHA ([1]; 0.5% D-DHA diet, 5 weeks): > 60%
- D-DHA in the RPE/choroid/sclera ([1]; 0.5% D-DHA diet, similar time points (4-5 weeks)): > 80%
- washout in the RPE/choroid/sclera ([1]; DHA wash-out diet, compared with retina): more rapid than retina
- uptake and elimination kinetics ([1]; neural retina and RPE/choroid/sclera): classic first order kinetics
Structure (SMILES): [2H]C([2H])(/C=C\CC)/C=C\C([2H])([2H])/C=C\C([2H])([2H])/C=C\C([2H])([2H])/C=C\C([2H])([2H])/C=C\CCC(=O)OCC [D-DHA, 6,6,9,9,12,12,15,15,18,18-D10-(4Z,7Z,10Z,13Z,16Z, 19Z)-docosa 4,7,10,13,16, 19-hexaenoic acid ethyl ester]
- retinal structure (toluidine blue histology) (retinal structure; 1 week after iron injection): complete protection
- total retina thickness and outer retina thickness (retinal structure; IVT iron injected eyes, 1 week after injection): significantly protected and not different from saline injected eyes
- geographic atrophy development [2]: fully protected
